Where a name gives a salt, the structure may show the parent alone.
What was measured:
human NHE3 = target: T1, human NHE3 (Homo sapiens, UniProt P48764); assay: NHE3 inhibition test (recovery of intracellular pH in cell line stably expressing human NHE3); format: cell-based; details: OK cells deficient in endogenous NHE stably expressing human NHE3; BCECF fluorescence, initial rate of pH recovery; read-out: human NHE3 inhibitory activity IC50
T1 sequence (P48764 26-834): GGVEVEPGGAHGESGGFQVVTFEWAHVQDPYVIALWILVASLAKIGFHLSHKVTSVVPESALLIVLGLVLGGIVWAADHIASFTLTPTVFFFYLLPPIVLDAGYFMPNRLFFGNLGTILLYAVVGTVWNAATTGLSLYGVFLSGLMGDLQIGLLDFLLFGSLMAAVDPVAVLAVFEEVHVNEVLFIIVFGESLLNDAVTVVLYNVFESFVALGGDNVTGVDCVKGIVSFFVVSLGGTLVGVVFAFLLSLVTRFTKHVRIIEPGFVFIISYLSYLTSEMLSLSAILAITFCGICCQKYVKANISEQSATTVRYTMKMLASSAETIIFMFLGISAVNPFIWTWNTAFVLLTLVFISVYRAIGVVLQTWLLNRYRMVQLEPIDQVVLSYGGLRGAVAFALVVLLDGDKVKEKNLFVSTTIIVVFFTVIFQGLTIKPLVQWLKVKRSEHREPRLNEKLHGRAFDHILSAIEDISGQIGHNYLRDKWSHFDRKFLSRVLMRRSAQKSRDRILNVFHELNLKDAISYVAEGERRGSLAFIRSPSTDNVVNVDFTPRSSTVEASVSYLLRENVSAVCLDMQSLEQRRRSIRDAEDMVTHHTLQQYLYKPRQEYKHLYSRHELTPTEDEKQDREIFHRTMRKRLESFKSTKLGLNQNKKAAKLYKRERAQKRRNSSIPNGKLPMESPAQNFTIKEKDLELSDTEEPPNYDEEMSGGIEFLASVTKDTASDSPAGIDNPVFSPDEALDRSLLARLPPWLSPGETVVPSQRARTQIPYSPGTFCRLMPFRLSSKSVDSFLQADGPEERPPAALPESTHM
Method in brief: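 IC50 is the concentration halving the initial rate of Na-triggered intracellular pH recovery, tracked by BCECF fluorescence, in NH4Cl-acidified cells. Cells: NHE-deficient OK line stably transfected with human NHE3; compound added in Na-free pH 7.4 buffer.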

SD rat = assay: 32P-phosphate oral loading test using SD rat (phosphorus absorption inhibitory effect); format: in vivo; details: SD male rats, plasma radioactivity 30 minutes after 32P-phosphate solution, vs control group; for inhibition in vivo at 3 mg/kg / inhibition in vivo at 1 mg/kg: Rattus norvegicus, 0.5 h, read-out: Rate of inhibition of phosphate absorption; for inhibition in vivo at 3 mg/kg: oral dose 3 mg/kg
Procedure: Phosphorus Absorption Inhibitory Effect of the Compound of the Present Invention in ^32P-Phosphate Oral Loading Test Using SD Rat
8-week-old SD male rats (Japan SLC, Inc.) were used as laboratory animals. Each test compound was suspended or dissolved at a concentration of 0.2 mg/mL or 0.6 mg/mL in Japanese Pharmacopoeia water for injection (manufactured by Hikari Pharmaceutical Co., Ltd.) and orally administered to each rat at a dose of 5 ml/kg body weight. Japanese Pharmacopoeia water for injection was administered at the same dose as above to a control group. 5 minutes after the administration of the test compound or water for injection, a phosphate solution (1.3 mM NaH2PO4) containing 32P-phosphate (PerkinElmer Inc.) was administered thereto at a dose of 5 ml/kg. 30 minutes after the administration of the phosphate solution, blood was collected from the tail vein, and the blood sample was immediately mixed with EDTA-2K (manufactured by Dojindo Laboratories). Then, the mixture was centrifuged at 3000 rpm at 4° C. for 10 minutes to recover plasma.
The radioactivity in 100 μL of the plasma was measured using a liquid scintillation counter and used as a phosphate absorption count. The radioactivity in the plasma of the control group was used as a control, and the rate of inhibition of phosphate absorption was determined according to the following expression: Rate of inhibition of phosphate absorption (%)=(1−Phosphate absorption count of the test compound administration group/Phosphate absorption count of the control group)×100 (2) Results

Compound	IC50 (human NHE3) [nM]	inhibition in vivo at 3 mg/kg (SD rat) [%]	inhibition in vivo at 1 mg/kg (SD rat; oral dose 1 mg/kg) [%]	Rate of inhibition of phosphate absorption (SD rat; oral dose 1 mg/kg) [%]
CN1Cc2c(Cl)cc(Cl)cc2[C@H](c2cccc(-c3cnn(CCOCCOCCNC(=O)NCCCCNC(=O)NCCOCCOCCn4cc(-c5cccc([C@@H]6CN(C)Cc7c(Cl)cc(Cl)cc76)c5)cn4)c3)c2)C1 [Example 7-5, 1,1′-Butane-1,4-diylbis[3-(2-{2-[2-(4-{3-[(4S)-6,8-dichloro-2-methyl-1,2,3,4-tetrahydroisoquinolin-4-yl]phenyl}-1H-pyrazol-1-yl)ethoxy]ethoxy}ethyl)urea]diformate]	4.5	23		
CN1Cc2c(Cl)cc(Cl)cc2[C@H](c2cccc(-c3cn(CCOCCOCCNC(=O)COCC(=O)NCCOCCOCCn4cc(-c5cccc([C@@H]6CN(C)Cc7c(Cl)cc(Cl)cc76)c5)nn4)nn3)c2)C1 [Example 6-4, 1-(4-{3-[(4S)-6,8-Dichloro-2-methyl-1,2,3,4-tetrahydroisoquinolin-4-yl]phenyl}-1H-1,2,3-triazol-1-yl)-N-(2-{2-[2-(4-{3-[(4S)-6,8-dichloro-2-methyl-1,2,3,4-tetrahydroisoquinolin-4-yl]phenyl}-1H-1,2,3-triazol-1-yl)ethoxy]ethoxy}ethyl)-10-oxo-3,6,12-trioxa-9-azatetradecan-14-amide hydrochloride]	97.6	-5		
CN1Cc2c(Cl)cc(Cl)cc2[C@H](c2cccc(-c3cncc(NCCOCCOCCOCCNC(=O)NCCCCNC(=O)NCCOCCOCCOCCNc4cncc(-c5cccc([C@@H]6CN(C)Cc7c(Cl)cc(Cl)cc76)c5)n4)n3)c2)C1 [Example 7-33, 1,1′-Butane-1,4-diylbis(3-{2-[2-(2-{2-[(6-{3-[(4S)-6,8-dichloro-2-methyl-1,2,3,4-tetrahydroisoquinolin-4-yl]phenyl}pyrazin-2-yl)amino]ethoxy}ethoxy)ethoxy]ethyl}urea) hexahydrochloride]	8.6	-1		
CN1Cc2c(Cl)cc(Cl)cc2C(c2cccc(-c3cnnc(NCCOCCOCCNC(=O)C(O)C(O)C(=O)NCCOCCOCCNc4cc(-c5cccc(C6CN(C)Cc7c(Cl)cc(Cl)cc76)c5)cnn4)c3)c2)C1 [Example 8-14, (2R,3R)-N-[2-(2-{2-[(5-{3-[(4R)-6,8-Dichloro-2-methyl-1,2,3,4-tetrahydroisoquinolin-4-yl]phenyl}pyridazin-3-yl)amino]ethoxy}ethoxy)ethyl]-N′-[2-(2-{2-[(5-{3-[(4S)-6,8-dichloro-2-methyl-1,2,3,4-tetrahydroisoquinolin-4-yl]phenyl}pyridazin-3-yl)amino]ethoxy}ethoxy)ethyl]-2,3-dihydroxybutanamide tetrahydrochloride]	9.1		46	
CN1Cc2c(Cl)cc(Cl)cc2[C@H](c2cccc(-c3cn(CCOCCOCCOCCOCCOCCNC(=O)NCCCCNC(=O)NCCOCCOCCOCCOCCOCCn4cc(-c5cccc([C@@H]6CN(C)Cc7c(Cl)cc(Cl)cc76)c5)nn4)nn3)c2)C1.Cl [Example 7-39, 1,1′-Butane-1,4-diylbis {3-[17-(4-{3-[(4S)-6,8-dichloro-2-methyl-1,2,3,4-tetrahydroisoquinolin-4-yl]phenyl}-1H-1,2,3-triazol-1-yl)-3,6,9,12,15-pentaoxaheptadec-1-yl]urea}hydrochloride]	3.2			38
CN1Cc2c(Cl)cc(Cl)cc2[C@H](c2cccc(-c3nnn(CCOCCOCCNC(=O)Nc4ccc(NC(=O)NCCOCCOCCn5nnc(-c6cccc([C@@H]7CN(C)Cc8c(Cl)cc(Cl)cc87)c6)n5)cc4)n3)c2)C1 [Example 7-10, 1,1′-Benzene-1,4-diylbis[3-(2-{2-[2-(5-{3-[(4S)-6,8-dichloro-2-methyl-1,2,3,4-tetrahydroisoquinolin-4-yl]phenyl}-2H-tetrazol-2-yl)ethoxy]ethoxy}ethyl)urea]hydrochloride]	13.7	35		
CN1Cc2c(Cl)cc(Cl)cc2[C@@H](c2cccc(-c3cc(OCCOCCOCCOCCNC(=O)COCC(=O)NCCOCCOCCOCCOc4cc(-c5cccc([C@@H]6CN(C)Cc7c(Cl)cc(Cl)cc76)c5)ncn4)ncn3)c2)C1 [Example 8-18, 1-[(6-{3-[(4R)-6,8-Dichloro-2-methyl-1,2,3,4-tetrahydroisoquinolin-4-yl]phenyl}pyrimidin-4-yl)oxy]-N-{2-[2-(2-{2-[(6-{3-[(4S)-6,8-dichloro-2-methyl-1,2,3,4-tetrahydroisoquinolin-4-yl]phenyl}pyrimidin-4-yl)oxy]ethoxy}ethoxy)ethoxy]ethyl}-13-oxo-3,6,9,15-tetraoxa-12-azaheptadecan-17-amide hydrochloride]	10.7	27		
CN1Cc2c(Cl)cc(Cl)cc2[C@H](c2cccc(-c3cc(OCCOCCOCCNC(=O)[C@H](O)[C@@H](O)C(=O)NCCOCCOCCOc4cc(-c5cccc([C@@H]6CN(C)Cc7c(Cl)cc(Cl)cc76)c5)ncn4)ncn3)c2)C1 [Example 8-16, (2R,3R)-N,N′-Bis[2-(2-{2-[(6-{3-[(4S)-6,8-dichloro-2-methyl-1,2,3,4-tetrahydroisoquinolin-4-yl]phenyl}pyrimidin-4-yl)oxy]ethoxy}ethoxy)ethyl]-2,3-dihydroxybutanediamide hydrochloride]	7.6	31		
CN1Cc2c(Cl)cc(Cl)cc2[C@H](c2cccc(-c3cc(NCCOCCOCCNC(=O)[C@H](O)[C@@H](O)C(=O)NCCOCCOCCNc4cc(-c5cccc([C@@H]6CN(C)Cc7c(Cl)cc(Cl)cc76)c5)ncn4)ncn3)c2)C1 [Example 8-8, (2R,3R)-N,N′-Bis[2-(2-{2-[(6-{3-[(4S)-6,8-dichloro-2-methyl-1,2,3,4-tetrahydroisoquinolin-4-yl]phenyl}pyrimidin-4-yl)amino]ethoxy}ethoxy)ethyl]-2,3-dihydroxybutanediamide hydrochloride]	6.2	39		
CN1Cc2c(Cl)cc(Cl)cc2[C@H](c2cccc(-c3cn(CCOCCOCCOCCNC(=O)NCCCCNC(=O)NCCOCCOCCOCCn4cc(-c5cccc([C@@H]6CN(C)Cc7c(Cl)cc(Cl)cc76)c5)nn4)nn3)c2)C1 [Example 6-2, 1,1′-Butane-1,4-diylbis {3-[2-(2-{2-[2-(4-{3-[(4S)-6,8-dichloro-2-methyl-1,2,3,4-tetrahydroisoquinolin-4-yl]phenyl}-1H-1,2,3-triazol-1-yl)ethoxy]ethoxy}ethoxy)ethyl]urea}hydrochloride]	5.7		47	
CN1Cc2c(Cl)cc(Cl)cc2[C@H](c2cccc(-c3cc(NCCOCCOCCNC(=O)NCCCCNC(=O)NCCOCCOCCNc4cc(-c5cccc([C@@H]6CN(C)Cc7c(Cl)cc(Cl)cc76)c5)ncn4)ncn3)c2)C1 [Example 7-2, 1,1′-Butane-1,4-diylbis {3-[2-(2-{2-[(6-{3-[(4S)-6,8-dichloro-2-methyl-1,2,3,4-tetrahydroisoquinolin-4-yl]phenyl}pyrimidin-4-yl)amino]ethoxy}ethoxy)ethyl]urea} tetrahydrochloride]	9.4	23		
CN1Cc2c(Cl)cc(Cl)cc2[C@H](c2cccc(-c3cncc(NCCOCCOCCOCCNC(=O)[C@H](O)[C@@H](O)C(=O)NCCOCCOCCOCCNc4cncc(-c5cccc([C@@H]6CN(C)Cc7c(Cl)cc(Cl)cc76)c5)n4)n3)c2)C1 [Example 8-20, (2R,3R)-N,N′-Bis{2-[2-(2-{2-[(6-{3-[(4S)-6,8-dichloro-2-methyl-1,2,3,4-tetrahydroisoquinolin-4-yl]phenyl}pyrazin-2-yl)amino]ethoxy}ethoxy)ethoxy]ethyl}-2,3-dihydroxybutanediamide tetrahydrochloride]	3.3	37		

Reference: patent US9932331B2, “Phenyl tetrahydroisoquinoline compound substituted with heteroaryl” (TAISHO PHARMACEUTICAL CO., LTD, priority 2014, dated 2018)
